# From paper PMC10955127 (Frontiers in Pharmacology, 2024)
# Columns and labels:
# [1] = tested on: androgen receptor; parameters: method as in ToxCast database; details: ref ToxCast database; cited from earlier work
# [2] = tested on: thyroid pathway; parameters: method as in ToxCast database; details: ref ToxCast database; cited from earlier work
# [3] = tested on: TSHR; parameters: method as in ToxCast database; details: ref ToxCast database; cited from earlier work
# [4] = biological target: Human OAT2v1 (Homo sapiens, UniProt Q9Y694)
# Human OAT2v1, sequence (Q9Y694 1-546 isoform Q9Y694-2): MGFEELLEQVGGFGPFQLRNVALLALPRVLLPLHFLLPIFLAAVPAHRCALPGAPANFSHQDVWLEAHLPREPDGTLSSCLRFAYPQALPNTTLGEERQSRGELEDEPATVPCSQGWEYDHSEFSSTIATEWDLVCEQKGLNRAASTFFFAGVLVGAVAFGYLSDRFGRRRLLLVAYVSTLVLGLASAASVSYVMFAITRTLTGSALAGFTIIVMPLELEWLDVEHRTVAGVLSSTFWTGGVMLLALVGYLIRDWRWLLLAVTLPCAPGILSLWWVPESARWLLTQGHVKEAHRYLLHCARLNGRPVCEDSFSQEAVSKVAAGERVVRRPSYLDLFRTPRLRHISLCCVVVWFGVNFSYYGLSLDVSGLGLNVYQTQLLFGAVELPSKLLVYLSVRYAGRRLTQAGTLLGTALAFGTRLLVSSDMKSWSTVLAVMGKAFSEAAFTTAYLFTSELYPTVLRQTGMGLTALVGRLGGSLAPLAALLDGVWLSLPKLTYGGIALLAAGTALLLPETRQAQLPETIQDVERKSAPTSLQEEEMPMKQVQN
# [5] = tested on: HepG2 cells; details: human, 24 h
# [6] = tested on: estrogen receptor; parameters: method as in ToxCast database; details: ref ToxCast database; cited from earlier work
# [7] = Deterministic PBPK model of plasma concentrations; parameters: species or system human; details: deterministic PBPK and Fup
# [8] = tested on: THRa; parameters: method as in ToxCast database; details: ref ToxCast database; cited from earlier work
# [9] = tested on: rats; details: teratogenic and embryotoxic effects; ref SCCS, 2023b; cited from earlier work
# [10] = tested on: HepG2 reporter cell lines; experiment: ToxProfiler cell stress assay; format: cell-based, human
# [11] = tested on: androgen receptor; parameters: method as in ToxCast database; details: ref ToxCast database; cited from earlier work; remark: listed apart in the source
# [12] = In vitro skin penetration and metabolism, fresh viable pig skin on static Franz cells; details: 24 h; epidermis + dermis + receptor fluid
# Source text: Fresh viable pig skin (without hot steam treatment, by-product from meat industry) was obtained from a local, commercial butcher (Hammoor, Germany). The back skin was from female pigs (bred from “Dänische Landrasse” (female) and Pietrain (male) pigs, ~130 days old, 100 kg body weight). Pig skin samples were gently dry-shaved and washed with water before use. For the experiment, 2 replicate discs from each of 3 donors were used.
# Skin of full-thickness was mounted on static Franz cells with a 4.9 cm² application area. The receptor compartment of the diffusion cell was filled with approx. 5 ml RF (1% BSA, 0.9% NaCl, 0.05% gentamycin sulfate in water), above a magnetic stirrer set to low rotation. […] The experiment was conducted using non-occluded conditions.
# The dermal absorption was calculated as the total amount present within epidermis (without the amount in the total SC strips), dermis and RF.
# [13] = biological target: Human MDR1 (Homo sapiens, UniProt P08183); details: not told
# Human MDR1, sequence (P08183 whole entry): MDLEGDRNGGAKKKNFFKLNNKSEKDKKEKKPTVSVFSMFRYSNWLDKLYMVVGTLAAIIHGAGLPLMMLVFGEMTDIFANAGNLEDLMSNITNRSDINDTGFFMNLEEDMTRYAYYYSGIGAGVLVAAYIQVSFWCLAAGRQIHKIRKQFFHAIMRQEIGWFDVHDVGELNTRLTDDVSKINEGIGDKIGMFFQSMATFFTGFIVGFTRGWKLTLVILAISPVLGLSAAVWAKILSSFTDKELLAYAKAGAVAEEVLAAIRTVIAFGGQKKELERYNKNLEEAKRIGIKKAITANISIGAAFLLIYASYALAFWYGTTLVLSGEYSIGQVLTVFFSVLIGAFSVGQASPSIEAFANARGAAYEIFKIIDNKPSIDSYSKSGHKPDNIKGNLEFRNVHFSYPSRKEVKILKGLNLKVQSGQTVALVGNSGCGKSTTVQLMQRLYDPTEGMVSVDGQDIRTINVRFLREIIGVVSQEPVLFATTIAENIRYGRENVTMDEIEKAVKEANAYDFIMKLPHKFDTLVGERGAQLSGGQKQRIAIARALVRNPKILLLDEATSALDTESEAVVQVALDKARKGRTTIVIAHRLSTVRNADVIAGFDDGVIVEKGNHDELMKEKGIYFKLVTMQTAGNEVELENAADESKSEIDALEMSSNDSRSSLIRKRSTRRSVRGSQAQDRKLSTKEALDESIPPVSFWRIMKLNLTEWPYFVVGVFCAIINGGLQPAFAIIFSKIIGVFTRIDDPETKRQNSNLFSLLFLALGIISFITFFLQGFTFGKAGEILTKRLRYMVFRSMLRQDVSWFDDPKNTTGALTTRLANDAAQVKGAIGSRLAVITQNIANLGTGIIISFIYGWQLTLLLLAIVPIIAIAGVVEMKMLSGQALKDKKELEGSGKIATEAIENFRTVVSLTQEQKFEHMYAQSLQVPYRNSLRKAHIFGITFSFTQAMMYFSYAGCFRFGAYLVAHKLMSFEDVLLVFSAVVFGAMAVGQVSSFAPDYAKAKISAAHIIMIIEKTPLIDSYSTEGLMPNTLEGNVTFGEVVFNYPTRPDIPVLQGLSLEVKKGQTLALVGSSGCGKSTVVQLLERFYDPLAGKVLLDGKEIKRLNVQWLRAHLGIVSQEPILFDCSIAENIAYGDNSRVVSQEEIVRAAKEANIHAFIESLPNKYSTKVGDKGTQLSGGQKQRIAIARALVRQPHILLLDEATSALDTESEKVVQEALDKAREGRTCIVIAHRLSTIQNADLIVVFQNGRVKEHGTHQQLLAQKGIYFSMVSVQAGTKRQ
# [14] = biological target: Human MRP2 (Homo sapiens, UniProt Q92887); details: not told
# Human MRP2, sequence (Q92887 whole entry): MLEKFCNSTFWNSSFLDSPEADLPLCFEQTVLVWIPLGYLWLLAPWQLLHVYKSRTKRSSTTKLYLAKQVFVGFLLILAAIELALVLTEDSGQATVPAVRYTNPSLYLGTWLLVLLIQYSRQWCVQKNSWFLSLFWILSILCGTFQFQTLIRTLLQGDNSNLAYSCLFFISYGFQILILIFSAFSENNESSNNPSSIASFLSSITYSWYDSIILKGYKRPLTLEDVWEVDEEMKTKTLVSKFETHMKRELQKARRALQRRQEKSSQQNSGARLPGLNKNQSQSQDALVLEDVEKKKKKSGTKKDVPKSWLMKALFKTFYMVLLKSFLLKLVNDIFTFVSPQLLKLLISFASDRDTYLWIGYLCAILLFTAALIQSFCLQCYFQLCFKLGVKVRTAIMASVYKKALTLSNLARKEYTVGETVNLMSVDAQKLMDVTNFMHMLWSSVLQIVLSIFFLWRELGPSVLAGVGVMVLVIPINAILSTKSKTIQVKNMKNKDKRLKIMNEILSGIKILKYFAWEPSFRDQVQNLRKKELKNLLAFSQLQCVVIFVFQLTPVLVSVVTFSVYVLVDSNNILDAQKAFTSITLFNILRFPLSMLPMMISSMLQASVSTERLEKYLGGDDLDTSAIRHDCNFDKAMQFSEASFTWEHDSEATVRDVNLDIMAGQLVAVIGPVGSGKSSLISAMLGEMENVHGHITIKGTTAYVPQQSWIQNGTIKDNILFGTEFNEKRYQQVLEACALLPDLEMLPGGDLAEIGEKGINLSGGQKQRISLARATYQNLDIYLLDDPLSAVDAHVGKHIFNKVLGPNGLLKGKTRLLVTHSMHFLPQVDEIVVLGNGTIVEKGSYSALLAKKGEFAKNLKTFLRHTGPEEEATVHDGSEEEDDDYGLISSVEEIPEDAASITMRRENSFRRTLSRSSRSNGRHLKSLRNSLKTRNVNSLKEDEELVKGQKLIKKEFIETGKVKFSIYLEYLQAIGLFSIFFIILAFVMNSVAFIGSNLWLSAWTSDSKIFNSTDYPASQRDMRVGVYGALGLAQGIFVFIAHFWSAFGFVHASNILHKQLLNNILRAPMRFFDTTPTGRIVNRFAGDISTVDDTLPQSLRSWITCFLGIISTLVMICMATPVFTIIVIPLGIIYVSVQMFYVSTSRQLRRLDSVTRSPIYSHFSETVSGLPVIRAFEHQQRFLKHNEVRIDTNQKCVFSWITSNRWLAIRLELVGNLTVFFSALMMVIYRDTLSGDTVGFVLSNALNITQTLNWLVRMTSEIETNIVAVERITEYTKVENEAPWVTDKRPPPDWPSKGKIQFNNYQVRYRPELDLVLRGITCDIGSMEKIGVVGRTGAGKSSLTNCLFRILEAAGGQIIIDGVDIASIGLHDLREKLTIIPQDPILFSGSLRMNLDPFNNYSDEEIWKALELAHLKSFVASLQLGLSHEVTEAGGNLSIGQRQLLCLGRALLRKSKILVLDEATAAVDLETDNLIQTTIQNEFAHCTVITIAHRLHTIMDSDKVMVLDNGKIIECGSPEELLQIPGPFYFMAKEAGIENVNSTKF
smiles,measurement,setting,value
"O=C(O)c1ccccc1O [SA, salicylic acid]",Androgen pathway Reporter protein Antagonist: Call,[1],Negative
same,Thyroid pathway Reporter protein Agonist: Call,[2],Negative
same,Thyroid pathway Regulation of transcription factor activity (TSHR): Call,[3],Negative
same,Substrate of OAT2v1 (uptake),[4],not a substrate
same,"PoD (BMDL, lowest pathway)",[5],213 μM (method 1) µM
same,Estrogen pathway Reporter protein Antagonist: Call,[6],Negative
same,Fraction unbound in the plasma (Fup),,3 to ∼20
same,Exposure of unbound SA compared to unbound BSal,[7],≥ 5 fold
same,Thyroid pathway receptor binding (THRa): Call,[8],Negative
same,NOAEL,[9],75 mg/kg bw
same,PoD,"[10]; ICAM1 (indicating inflammation), tested 10 μM to 10 mM","4,000 µM"
same,Stress pathway reporters activated,[10]; seven reporters,activated only ICAM1
same,Androgen pathway receptor binding: Call,[11],Negative
same,Dermal absorption of individual analytes,[12],6.9 ± 0.4 percentage of the applied dose
same,Substrate of MDR1 (efflux),[13],not a substrate
same,Substrate of MRP2 (efflux),[14],not a substrate
